Key:
[1] = Pro-drug activity: conversion of amidoxime to amidine in mice; assay type: in vivo; conditions: 20 mpk, IP or oral, FIG. 7B
Method: Mice were dosed with 20 mpk of amidoxime, VPC96143, both IP and orally. S1P in plasma and organs was measured at times ASAP, 2 hrs and 24 hrs. The compound amidine, VPC96077, was also measured in plasma and organs at times ASAP, 2 hrs and 24 hrs.
Mice Numbering • 51: dosed with 20 mpk amidoxime VPC96143 administered IP. Plasma extracted ASAP and 2 hrs. Organs harvested at 2 hrs. • 52: dosed with 20 mpk amidoxime VPC96143 administered IP. Plasma extracted ASAP and 24 hrs. Organs harvested at 2 hrs. • 53: dosed with 20 mpk amidoxime VPC96143 administered orally. Plasma extracted ASAP and 2 hrs. Organs harvested at 2 hrs.

[2] = biological target: human SphK1 (Homo sapiens (Human), UniProt Q9NYA1); assay: Determination of Ki values, recombinant human SphK1 in Sf9 cell homogenates; assay type: biochemical; conditions: amidine HCl salt; recombinant human SphK1, Sf9 homogenate, 37 C, 20 minutes; read-out: SphK1 inhibitory constant (Ki)
Chain of human SphK1 (Q9NYA1 whole entry): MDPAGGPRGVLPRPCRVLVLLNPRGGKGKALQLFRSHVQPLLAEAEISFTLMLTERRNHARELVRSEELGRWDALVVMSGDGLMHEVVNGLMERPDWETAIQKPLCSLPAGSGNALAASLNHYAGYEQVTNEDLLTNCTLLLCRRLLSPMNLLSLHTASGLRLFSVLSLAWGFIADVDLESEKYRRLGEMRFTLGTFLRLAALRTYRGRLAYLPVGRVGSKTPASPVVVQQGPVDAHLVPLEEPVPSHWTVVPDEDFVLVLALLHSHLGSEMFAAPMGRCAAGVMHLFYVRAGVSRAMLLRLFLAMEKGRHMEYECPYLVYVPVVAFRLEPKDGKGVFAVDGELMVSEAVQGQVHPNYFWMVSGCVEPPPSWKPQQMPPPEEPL
Method: (§1) Sphingosine kinase activity was assessed as described previously (Kharel, Y., Lee, S., Snyder, A. H., Sheasley-O'Neill, S. L., Morris, M. A., Setiady, Y., Zhu, R., Zigler, M. A., Burcin, T. L., Ley, K., Tung, K. S. K., Engelhard, V. H., Macdonald, T. L. and Lynch, K. R. Sphingosine kinase 2 is required for modulation of lymphocyte traffic by FTY720. J Biological Chemistry 280: 36865-36872 (2005)). High levels of human sphingosine kinase type 1 (mSK1) and mouse sphingosine kinase type 2 (mSK2) were expressed in Sf9 insect cells by infection with cognate baculoviruses. Crude homogenates were incubated with γ-[^32P]ATP and 10 micromolar D-erythro-sphingosine in the presence of 100 micromolar concentrations of test compounds for 20 minutes at 37 C. The product, radiolabeled S1P, was isolated by extraction into organic solvents after acidification and […] by thin layer chromatography. […]
(§2) Crude homogenates of Sf9 cells containing high levels of recombinant mouse SphK2 or human SphK1 were incubated with γ-[^32P]ATP and various concentrations (0 to 500 micromolar) of D-erythro-sphingosine for 20 minutes […] at 37 C in the presence of fixed concentration of test compound. The product, radiolabeled S1P, was isolated by extraction into organic solvents followed by thin layer chromatography, recovered and radioactivity measured by liquid scintillation counting. […]

[3] = biological target: mouse SphK2 (Mus musculus (Mouse), UniProt Q9JIA7); assay: Determination of Ki values, recombinant mouse SphK2 in Sf9 cell homogenates; assay type: biochemical; conditions: amidine HCl salt; recombinant mouse SphK2, Sf9 homogenate, 37 C, 20 minutes; read-out: SphK2 inhibitory constant (Ki)
Chain of mouse SphK2 (Q9JIA7 whole entry): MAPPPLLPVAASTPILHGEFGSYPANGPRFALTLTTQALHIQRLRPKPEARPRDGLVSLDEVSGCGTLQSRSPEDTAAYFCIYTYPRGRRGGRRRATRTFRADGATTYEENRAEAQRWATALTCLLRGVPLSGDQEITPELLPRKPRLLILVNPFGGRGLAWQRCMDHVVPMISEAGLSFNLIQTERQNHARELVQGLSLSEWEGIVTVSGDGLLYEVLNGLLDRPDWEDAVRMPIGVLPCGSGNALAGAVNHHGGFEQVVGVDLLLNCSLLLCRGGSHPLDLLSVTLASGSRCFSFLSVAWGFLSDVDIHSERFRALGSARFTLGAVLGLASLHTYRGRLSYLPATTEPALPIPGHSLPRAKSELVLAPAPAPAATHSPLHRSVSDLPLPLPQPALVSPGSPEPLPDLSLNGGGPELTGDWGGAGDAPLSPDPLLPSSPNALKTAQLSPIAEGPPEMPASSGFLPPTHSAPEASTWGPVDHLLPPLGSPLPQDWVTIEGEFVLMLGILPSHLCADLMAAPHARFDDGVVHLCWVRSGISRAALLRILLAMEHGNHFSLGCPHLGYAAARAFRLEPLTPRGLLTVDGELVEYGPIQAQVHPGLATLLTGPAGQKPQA
Method: as §1, §2

Row | Ki [2] | Ki [3] | Structure (SMILES) | conversion of amidoxime pro-drug to amidine congener VPC96077 (accumulation in plasma) [1]
1 |  |  | CCCCCCCCCCCc1ccc(C(=O)N2CCC[C@H]2/C(N)=N/O)cc1 [VPC96143] | conversion of the amidoxime to the amidine in vivo
2 | 500 nM | > 10000 nM | N/C(=N\O)C1(C(=O)Nc2ccc(CCCCCCCCCc3ccccc3)cc2)CC1 [VPC143129] | 

Reference: patent US9421177B2, “Imidamide sphingosine kinase inhibitors” (University of Virginia Patent Foundation, priority 2009, dated 2016)
